From patent US20130156865A1, “POTENTIATION INDUCED BY PDE4 INHIBITORS IN THE TREATMENT OF LEUKEMIA” (Chiesi Farmaceutici S.p.A., priority 2011, published 2013)
Entries after “also recorded” stand apart in the source; their conditions may differ.

Legend:
[1] = system: Imatinib-sensitive (K562-SENS, LAMA-SENS, KCL22-SENS) and Imatinib-resistant (K562-RES, LAMA-RES, KCL22-RES and BAF3 p210-T315I) chronic myeloid leukemia (CML) …; test: Apoptosis (sub-G1 propidium iodide or Annexin-V) with PDE-4 inhibitor plus ATO in CML cell lines; type: cell-based, human
Protocol: (§1) The Parental Acute Promyelocytic Leukemia (APL) cell line NB4 and the Arsenic resistant NB4-AsR cell line were seeded at 0.8×10^5 cells/mL of fresh RPMI 1640 medium (Sigma Aldrich), supplemented with 10% fetal calf serum, 2 mM L-glutamine, penicillin G (100 U/mL), streptomycin ([…]). Cells were pre-treated for 30 minutes with vehicle (DMSO), CHF-6001 (1 and 10 μM), Roflumilast (1 and 10 μM) or Piclamilast (1, and 50 μM) and then incubated with ATO at the indicated doses. After 72 hours cells were collected, stained with Annexin-V FITC (according to the manufacturer's recommendations—Bender MedSystems) and processed by flow cytometry (FACSCalibur, Becton Dickinson, San Josè, Calif.) to evaluate the percentage of apoptosis as described in Lunghi P et al., Leukemia. 2005; 19(2):234-44, which is incorporated herein by reference in its entirety.
The Imatinib-sensitive (K562-SENS, LAMA-SENS, KCL22-SENS) and Imatinib-resistant (K562-RES, LAMA-RES, KCL22-RES and BAF3 p210-T315I) chronic myeloid leukemia (CML) cell lines were cultured with the PDE-4 inhibitor and ATO as described in Example 1. After 72 hours cells were harvested, stained with Propidium Iodide to evaluate the percentage of cells with hypodiploid DNA content (sub-G1) or with Annexin-V FITC as described in Lunghi P et al Leukemia. 2005; 19(2):234-44, which is incorporated herein by reference in its entirety.

[2] = system: NB4 and NB4-AsR cell lines; test: Myeloid marker panel (CD33, CD38, CD11b, CD14, CD15) and NBT reduction with C2/ATRA; type: cell-based, human
Protocol: On the Y-axis the histograms represent, for each cell line, the percentage of myeloid differentiation measured using a panel of myeloid markers (CD33, CD38, CD11b, CD15, CD14) and nitroblue tetrazolium reduction test (% NBT+). Vehicle indicates Dimethyl sulfoxide (DMSO); C2, compound C2; CTR, control; ATRA, all-trans retinoic acid.
NB4 e NB4-AsR cell lines were cultured with C2/ATRA for 72 hours, after which cells were harvested for determination of NBT reduction and expression of differentiation-associated surface antigens CD33, CD38, CD11b, CD14 and CD15. Cytofluorimetric analysis of surface antigen expression was performed using the following monoclonal antibodies all provided by Sigma Chemical: fluorescein isothiocyanate (FITC)-conjugated anti-CD33 antibody, (FITC)-conjugated anti-CD38 antibody, (FITC)-conjugated anti-CD11b antibody, (FITC)-conjugated anti-CD 14 antibody and (FITC)-conjugated anti-CD15 antibody. Briefly, each antibody was incubated at the proper dilution with cell samples in PBS containing 1% BSA for 30 minutes at room temperature. Cells were then washed and resuspended with PBS and analyzed by flow cytometer.

[3] = system: Acute Promyelocytic Leukemia (APL) cell line NB4 and Arsenic resistant NB4-AsR cell line; test: Annexin-V apoptosis assay with PDE-4 inhibitor pre-treatment plus ATO in APL cells; type: cell-based, human
Protocol: as §1

[4] = system: LAMA-RES, NB4 and NB4-AsR cell lines; test: C2/ATO-induced apoptosis (annexin V) in the presence of caspase inhibitors; type: cell-based, human; conditions: caspase inhibitors 25 μM, 1 hour pre-treatment; 24 hours; FIG. 4
Excerpt: On the Y-axis the histograms represent the percentage of apoptotic cells measured by Annexin V staining (% ANNEXIN V+). NEG indicates peptide control Cbz-Phe-Ala-fluoromethyl ketone (Z-FA-FMK), CASPASE-8 IN, specific caspase-8 inhibitor Cbz-Ile-Glu(Ome)-Thr-Asp(Ome)-fluoromethyl ketone (Z-IETD-FMK), CASPASE-9 IN, specific caspase-9 inhibitor Cbz-Leu-Glu(Ome)-His-Asp(Ome)-fluoromethyl ketone (Z-LEHD-FMK), PANCASPASE IN, pancaspase inhibitor Cbz-Val-Ala-Asp(Ome)-fluoromethyl ketone (Z-VAD-FMK); CTR, control; C2, compound C2; ATO, arsenic trioxide.
LAMA-RES, NB4 and NB4-AsR cell lines were pretreated with selective caspase inhibitors for 1 hour before adding C2 and/or ATO. After 24 hours the percentage of apoptotic cells was determined by the annexin V method. More specifically, the caspase inhibitors are: NEG peptide control Cbz-Phe-Ala-fluoromethyl ketone (Z-FA-FMK), CASPASE-8 inhibitor Cbz-Ile-Glu(Ome)-Thr-Asp(Ome)-fluoromethyl ketone (Z-IETD-FMK), CASPASE-9 inhibitor Cbz-Leu-Glu(Ome)-His-Asp(Ome)-fluoromethyl ketone (Z-LEHD-FMK), and the PANCASPASE inhibitor Cbz-Val-Ala-Asp(Ome)-fluoromethyl ketone (Z-VAD-FMK), all provided from Alexis (San Diego, Calif., USA). All caspase inhibitors were dissolved in DMSO, stocked in aliquots at −20° C., and used at the final concentration of 25 μM.

[5] = system: NB4 and NB4-AsR Acute Promyelocytic Leukemia cell lines; test: Myeloid differentiation (CD11b expression, NBT reduction test) with ATRA or low-dose ATO; type: cell-based, human
Protocol: NB4 and NB4-AsR were seeded at 0.8×10^5 cells/mL in presence of vehicle (DMSO) or the PDE-4 inhibitor at the indicated doses for 30 minutes and then incubated with 0.1 μM and 1 μM of all-trans retinoic acid ([…]) promoting cell differentiation (see Chen GQ et al., Blood. 1997; 89(9):3345-53, which is incorporated herein by reference in its entirety). After 72 hours of treatment, early and late stage of differentiation was evaluated. More specifically, expression of the cell surface CD11b, an early-expressed maturation marker, was measured by flow cytometry using fluorescein isothiocyanate (FITC)-conjugated anti-CD11b antibody (Sigma Chemical Co.) according to the manufacturer's protocol. Late stage differentiation of leukemic cells was detected using the microscopic nitroblue tetrazolium (NBT) reduction test (Chen GQ et al., vide supra).
This assay is conducted by counting the cells containing blue NBT formazan deposits, which are formed by reduction of the membrane permeable, water-soluble, yellow-colored, nitroblue tetrazolium (NBT) by superoxide anions O2. Over 300 cells were counted per sample, and variation in replicates was routinely within 10%.

[6] = system: chronic lymphocytic leukemia (CLL) B-lymphocytes; conditions: in vitro; Mentz F et al., Br. J. Hematol. 1995; cited from earlier work

| Compound | potentiation of the proapoptotic effects of ATO (% sub-G1 or % Annexin V+) ([1]; C2 1 μM/10 μM + ATO 2 μM (ATO 1 μM in Baf3-T315I), 72 hours, P<0.001, P<0.05 in K562-RES, versus either mono-treatment, FIG. 2) | effectiveness versus roflumilast or piclamilast in potentiating the proapoptotic effects of ATO ([1]; CML cell lines, same doses of comparator + ATO, P<0.001 to P<0.05) | dose inducing CD38 and CD11b expression relative to piclamilast ([2]; ATO-sensitive or ATO-resistant acute promyelocytic leukemia cells) | induction of the early myeloid markers CD38 and CD11b ([2]; C2 as mono-treatment, ATO-sensitive or ATO-resistant APL cells, 72 hours, FIG. 7) | enhancement of the cytodifferentiating action of ATRA ([2]; very low-dose ATRA, ATO-sensitive or ATO-resistant APL cell lines, 72 hours) | effectiveness versus roflumilast or piclamilast in potentiating the proapoptotic effects of ATO ([3]; APL cells incl. ATO-resistant, P<0.001 versus same doses of comparator + ATO, P<0.005 C2 1 μM versus comparator 10 μM) | potentiation of the proapoptotic effects of ATO (% Annexin V+ cells) ([3]; C2 1 μM/10 μM + ATO 1 μM, 72 hours, P<0.001 versus either mono-treatment, FIG. 1) | enhancement of ATO-induced cytotoxicity and caspase dependence (% Annexin V+) [4] | expression of the myeloid marker CD11b (% CD11b+) ([5]; 72 hours, FIG. 6) | effectiveness versus Roflumilast or Piclamilast in potentiating the cytodifferentiating action of ATRA or ATO ([5]; ATO-sensitive or ATO-resistant APL cell lines, same doses of comparator, P<0.001 to P<0.01) | potentiation of the cytodifferentiating action of ATRA and ATO ([5]; C2 1 μM/10 μM + ATRA or + ATO 1 μM, P<0.001 versus either mono-treatment, NB4 and NB4-AsR, 72 hours) | induction of apoptosis [6] |
| --- | --- | --- | --- | --- | --- | --- | --- | --- | --- | --- | --- | --- |
| CS(=O)(=O)Nc1ccc(C(=O)O[C@@H](Cc2c(Cl)c[n+]([O-])cc2Cl)c2ccc(OC(F)F)c(OCC3CC3)c2)cc1OCC1CC1 [Compound C2, (-)-3-Cyclopropylmethoxy-4-methanesulfonylamino-benzoic acid 1-(3-cyclopropylmethoxy-4-difluoromethoxy-phenyl)-2-(3,5-dichloro-1-oxy-pyridin-4-yl)-ethyl ester] | potentiates the proapoptotic effects of ATO | more effective than Roflumilast or Piclamilast | 5 fold lower | capable of inducing the expressions of the early myeloid markers CD38 and CD11b; also recorded: induces upregulation of the myeloid markers (CD38 and CD11b); also recorded: able to partially induce an early myeloid differentiation | enhances the cytodifferentiating action of very low-dose of ATRA | more effective than CHF 5152 (roflumilast) or CHF 5859 (piclamilast) | potentiates the proapoptotic effects of ATO | strikingly enhances ATO-induced cytotoxicity in leukemia cells through a caspase-dependent mechanism | upregulates the expression of the myeloid marker CD11b | more effective than Roflumilast or Piclamilast | potentiates the cytodifferentiating action of ATRA and ATO |  |
| Cn1c(=O)c2[nH]cnc2n(C)c1=O [theophylline] |  |  |  |  |  |  |  |  |  |  |  | induce apoptosis |
